Assay results: article PMC9177597, “Structural basis of substrate recognition and translocation by human very long-chain fatty acid transporter ABCD1” (Nature Communications, 2022)
Numbering of substitutions follows the chain as printed.

Columns and labels:
Experiment in all cases: substrate-stimulated ATPase assay (colorimetric Pi release)
Format in all cases: biochemical
[1] = molecular target: T1, chABCD1 (chimeric ABCD1) (Homo sapiens, UniProt P33897, R104A); conditions: 5 μM C22:0-CoA, 2 mM ATP, 2 mM MgCl2, LMNG + CHS, pH 7.5, 37 °C
T1 construct: single polypeptide: N-terminal FLAG tag, PMP-4 residues 1-65 replacing human ABCD1 residues 1-63, then human ABCD1 64-745; HEK293F; homodimer; LMNG/CHS for assays, digitonin for cryo-EM; with PMP-4 (peroxisomal membrane protein related, ABCD1 homolog, Caenorhabditis elegans; N-terminal segment fused to the target chain)
T1 sequence (P33897 64-745 R104A): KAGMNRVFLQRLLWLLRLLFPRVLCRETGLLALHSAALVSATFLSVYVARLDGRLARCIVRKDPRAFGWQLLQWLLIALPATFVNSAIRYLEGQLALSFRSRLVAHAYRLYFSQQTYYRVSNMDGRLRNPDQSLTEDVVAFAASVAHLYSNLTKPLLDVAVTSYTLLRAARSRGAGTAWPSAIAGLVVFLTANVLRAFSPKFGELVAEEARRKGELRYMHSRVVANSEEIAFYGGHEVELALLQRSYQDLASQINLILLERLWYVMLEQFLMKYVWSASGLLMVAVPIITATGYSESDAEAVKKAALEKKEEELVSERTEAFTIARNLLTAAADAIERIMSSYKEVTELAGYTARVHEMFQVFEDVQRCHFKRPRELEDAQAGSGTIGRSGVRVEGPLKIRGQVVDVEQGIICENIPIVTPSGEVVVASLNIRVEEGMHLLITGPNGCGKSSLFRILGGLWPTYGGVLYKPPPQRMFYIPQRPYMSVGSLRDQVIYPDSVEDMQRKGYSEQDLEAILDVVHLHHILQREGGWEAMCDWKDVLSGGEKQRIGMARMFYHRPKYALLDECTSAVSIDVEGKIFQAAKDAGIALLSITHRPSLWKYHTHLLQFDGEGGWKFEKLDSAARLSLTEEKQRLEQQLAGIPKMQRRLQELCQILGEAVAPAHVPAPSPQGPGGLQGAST

[2] = molecular target: T2, chABCD1 (chimeric ABCD1) (Homo sapiens, UniProt P33897)
T2 construct: single polypeptide: N-terminal FLAG tag, PMP-4 residues 1-65 replacing human ABCD1 residues 1-63, then human ABCD1 64-745; HEK293F; homodimer; LMNG/CHS for assays, digitonin for cryo-EM; with PMP-4 (peroxisomal membrane protein related, ABCD1 homolog, Caenorhabditis elegans; N-terminal segment fused to the target chain)
T2 sequence (P33897 64-745): T1 sequence (P33897 64-745 R104A) with A41R

[3] = molecular target: T3, chABCD1 (chimeric ABCD1) (Homo sapiens, UniProt P33897, K336A); conditions: 5 μM C22:0-CoA, 2 mM ATP, 2 mM MgCl2, LMNG + CHS, pH 7.5, 37 °C
T3 construct: single polypeptide: N-terminal FLAG tag, PMP-4 residues 1-65 replacing human ABCD1 residues 1-63, then human ABCD1 64-745; HEK293F; homodimer; LMNG/CHS for assays, digitonin for cryo-EM; with PMP-4 (peroxisomal membrane protein related, ABCD1 homolog, Caenorhabditis elegans; N-terminal segment fused to the target chain)
T3 sequence (P33897 64-745 K336A): T1 sequence (P33897 64-745 R104A) with A41R, K273A

[4] = molecular target: T4, chABCD1 (chimeric ABCD1) (Homo sapiens, UniProt P33897, G343V); conditions: 5 μM C22:0-CoA, 2 mM ATP, 2 mM MgCl2, LMNG + CHS, pH 7.5, 37 °C
T4 construct: single polypeptide: N-terminal FLAG tag, PMP-4 residues 1-65 replacing human ABCD1 residues 1-63, then human ABCD1 64-745; HEK293F; homodimer; LMNG/CHS for assays, digitonin for cryo-EM; with PMP-4 (peroxisomal membrane protein related, ABCD1 homolog, Caenorhabditis elegans; N-terminal segment fused to the target chain)
T4 sequence (P33897 64-745 G343V): T1 sequence (P33897 64-745 R104A) with A41R, G280V

## CCCCCCCCCCCCCCCCCCCCCC(=O)SCCNC(=O)CCNC(=O)[C@H](O)C(C)(C)COP(=O)(O)OP(=O)(O)OC[C@H]1O[C@@H](n2cnc3c(N)ncnc32)[C@H](O)[C@@H]1OP(=O)(O)O [C22:0-CoA]
[1]
  relative ATPase activity: displayed significantly decreased substrate-simulated ATPase activity, compared to the wild-type
[2]
  EC50: ~2000 nM
[3]
  relative ATPase activity: displayed significantly decreased substrate-simulated ATPase activity, compared to the wild-type
[4]
  relative ATPase activity: displayed significantly decreased substrate-simulated ATPase activity, compared to the wild-type
